# Laboratory results from PMC3457657 (Medicinal chemistry research : an international journal for …, 2011).
# Where two headings read alike, the source gives them in different places.
# Tests used:
# [1] = system: S. aureus; conditions: ref Desbois et al., 2008; cited from earlier work
# [2] = system: Staphylococcus aureus ATCC 29213; test: In vitro antimicrobial; type: cell-based; conditions: ATCC29213, read-out: IC50 Antibacterial S. aureus
# [3] = system: Cryptococcus neoformans ATCC 90113; test: In vitro antimicrobial; type: cell-based; conditions: ATCC90113, read-out: IC50 Antifungal C. neoformans
# [4] = system: HeLa cells; conditions: cited from earlier work
# [5] = system: mouse skin tumor promotion; conditions: two-stage carcinogenesis; ref Mikaye et al., 2010; cited from earlier work
# [6] = system: mitochondrial respiration; conditions: ref Kawai et al., 1986; cited from earlier work
# [7] = ref Mikaye et al., 2009; Ishikawa et al., 1984; Li et al., 2006; cited from earlier work
# [8] = system: methicillin-resistant S. aureus ATCC 33591 (MRS); test: In vitro antimicrobial; type: cell-based; conditions: Staphylococcus aureus, ATCC33591, read-out: IC50 Antibacterial MRS
# [9] = system: sex cells of the sea urchin Strongylocentrotus intermedius; conditions: at a concentration of 0.5 mg/l; ref Smetanina et al., 2007; cited from earlier work
# [10] = system: P. falciparum chloroquine-resistant strain (W2, Indo China); test: In vitro antimalarial activity, plasmodial LDH activity; type: cell-based, Plasmodium falciparum; conditions: chloroquine-resistant strain W2, 72 h
# [11] = system: P. falciparum chloroquine-sensitive strain (D6, Sierra Leone); test: as above; type: cell-based, Plasmodium falciparum; conditions: chloroquine-sensitive strain D6, 72 h
# [12] = ref Ali et al., 1989; cited from earlier work
# [13] = ref Vesonder et al., 1988; cited from earlier work
# [14] = ref Vesonder et al., 1988; cited from earlier work; remark: listed apart in the source
# [15] = ref Mori et al., 1984; cited from earlier work
# [16] = ref Fujimoto et al. 1999; cited from earlier work
# [17] = system: visceral and cutaneous leishmaniasis; conditions: oral drug, ref Berman, 2008; cited from earlier work
Compound,IC50 [2],IC50 [3],IC50 [8],inhibition of mouse skin tumor promotion [5],antioxidant activity and radical scavenging activity against DPPH [7],further results
CCCCCC/C=C\CCCCCCCC(=O)O [(9Z)-hexadecenoic acid],,,,,,"potency against S. aureus relative to (6Z, 9Z, 12Z)-hexadecatrienoic acid (HTA) [1]: about twice as much"
"C/C=C/C=C/C=C/c1c(O)cc(CC=C(C)C)c(O)c1C=O [Compound 5, auroglaucin]",> 20 µg/mL,> 20 µg/mL,> 20 µg/mL,inhibited,antioxidant activity and radical scavenging activity,
"CCC/C=C/c1cc2c(C=O)c(O)c(CC=C(C)C)cc2o1 [Compound 6, 2-(2′,3-epoxy-1′,3′-heptadienyl)-6-hydroxy-5-(3-methyl-2-butenyl)benzaldehyde]",,,,,antioxidant activity and radical scavenging activity,IC50 Antimalarial P. falciparum W2 [10]: inactive; IC50 Antimalarial P. falciparum D6 [11]: inactive
"C=CC(C)(C)c1[nH]c2c(CC=C(C)C)cc(CC=C(C)C)cc2c1C[C@@H]1NC(=O)[C@H](C)NC1=O [Compound 7, echinulin]",> 20 µg/mL,> 20 µg/mL,> 20 µg/mL,,,"cytotoxicity to HeLa cells ([4]; at the concentration of 100 mg/l, ref Umeda et al., 1974, Wang et al., 2006): cytotoxicity; organ damage (alveolar, liver) [12]: severe damage of alveolar organization and thickening of alveolar walls and liver damage; concentration in the water causing drinking refusal in mice [13]: 90000 ng/mL; concentration in food that swine refused to eat [14]: 8 ng/mL; genotoxicity [15]: not genotoxic"
"Cc1c(O)cc(O)c2c1COC2=O [Compound 8, 5,7-dihydroxy-4-methylphthalide]",> 20 µg/mL,,> 20 µg/mL,,,immunosuppressive activity [16]: immunosuppressive activity
CCCCCCCCCCCCCCCCOP(=O)([O-])OCC[N+](C)(C)C [Miltefosine],,,,,,cure rates [17]: about 98%

# The next lines start with results.
IC50 [2],IC50 [3],IC50 [8],Compound,inhibition of mouse skin tumor promotion [5],antioxidant activity and radical scavenging activity against DPPH [7],further results
> 20 µg/mL,> 20 µg/mL,,"CCCCC/C=C/c1c(O)cc(CC=C(C)C)c(O)c1CO [Compound 1, (E)-2-(hept-1-enyl)-3-(hydroxymethyl)-5-(3-methylbut-2-enyl)benzene-1,4-diol]",,,
,> 20 µg/mL,,"CCCCCCCc1c(O)cc(CC=C(C)C)c(O)c1C=O [Compound 2, flavoglaucin]",inhibited,antioxidant activity and radical scavenging activity,cytotoxicity to HeLa cells [4]: cytotoxic; mitochondrial respiration [6]: inhibited mitochondrial respiration; mitochondrial swelling [6]: induced mitochondrial swelling
,> 20 µg/mL,> 20 µg/mL,"CCCCC/C=C/c1c(O)cc(CC=C(C)C)c(O)c1C=O [Compound 3, tetrahydroauroglaucin]",inhibited,antioxidant activity and radical scavenging activity,cytotoxic activity against sex cells of the sea urchin [9]: cytotoxic activity
> 20 µg/mL,> 20 µg/mL,> 20 µg/mL,"CCC/C=C/C=C/c1c(O)cc(CC=C(C)C)c(O)c1C=O [Compound 4, dihydroauroglaucin]",inhibited,antioxidant activity and radical scavenging activity,IC50 Antimalarial P. falciparum W2 [10]: inactive; IC50 Antimalarial P. falciparum D6 [11]: inactive
